Source: US8518957B2, “Methanocarba adenosine derivatives, pharmaceutical compositions, and method of reducing intraocular pressure” (The United States of America, as represented by the …, priority 2009, dated 2013)

molecular target: T1, hA2AAR (Homo sapiens, UniProt P29274); experiment: Radioligand binding at human A2A AR ([3H]CGS21680, membranes of HEK-293 cells); conditions: not given
T1 construct: expressed in transfected cells
How it was run: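 Membranes from CHO (hA1, hA3) or HEK-293 (hA2A) cells were pretreated with adenosine deaminase and incubated 60 min at 25° C in pH 7.5 Tris/10 mM MgCl2. Radioligands were A1 [3H]NECA 3.5 nM, A2A [3H]CGS21680 10 nM and A3 [125I]I-AB-MECA 0.34 nM. Bound ligand was filtered and Ki derived.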

T1 sequence (P29274 whole entry): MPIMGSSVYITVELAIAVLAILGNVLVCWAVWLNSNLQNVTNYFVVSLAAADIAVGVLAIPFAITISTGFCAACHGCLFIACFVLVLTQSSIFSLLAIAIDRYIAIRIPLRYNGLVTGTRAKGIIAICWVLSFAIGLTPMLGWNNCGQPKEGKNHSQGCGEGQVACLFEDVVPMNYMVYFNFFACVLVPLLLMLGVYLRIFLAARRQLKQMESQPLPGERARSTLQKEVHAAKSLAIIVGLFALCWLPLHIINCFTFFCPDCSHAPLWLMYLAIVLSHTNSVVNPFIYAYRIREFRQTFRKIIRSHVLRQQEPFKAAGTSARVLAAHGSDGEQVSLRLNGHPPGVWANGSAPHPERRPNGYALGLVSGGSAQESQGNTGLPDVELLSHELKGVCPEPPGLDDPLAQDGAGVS

inhibition at 10 µM | SMILES
40% | CNC(=O)[C@@]12C[C@@H]1[C@@H](n1cnc3c(NCc4cccc(Cl)c4)nc(C#CCCCCc4cn(-c5ccc(C(=O)O)cc5)nn4)nc31)[C@H](O)[C@@H]2O [Compound 13, (1S,2R,3S,4R,5S)-4′-(6-(3-Chlorobenzylamino)-2-(6-(1-(4-carboxyl-phenyl)-1H-1,2,3-triazol-4-yl)hex-1-ynyl)-9H-purin-9-yl)-2′,3′-dihydroxybicyclo[3.1.0]hexane-1′-carboxylic acid N-methylamide]
49% | CNC(=O)[C@@]12C[C@@H]1[C@@H](n1cnc3c(NCc4cccc(Cl)c4)nc(C#CCCCCc4cn(Cc5ccc(-n6sccc6=O)cc5)nn4)nc31)[C@H](O)[C@@H]2O [Compound 19, (1S,2R,3S,4R,5S)-6-(3-Chlorobenzylamino)-(2-(1-(4-3-oxoisothiazol-2(3H)-yl)benzyl-1H-1,2,3-triazol-4-yphex-1-ynyl)-9H-purin-9-yl)-2′,3′-dihydroxybicyclo[3.1.0]hexane-β-carboxylic acid N-methylamide]
27% | CNC(=O)[C@@]12C[C@@H]1[C@@H](n1cnc3c(NCc4cccc(Cl)c4)nc(C#CCCCCc4cn(CCCCCCNC(=O)CCCC[C@@H]5SC[C@@H]6NC(=O)N[C@@H]65)nn4)nc31)[C@H](O)[C@@H]2O [Compound 20, (1S,2R,3S,4R,5S)-6-(3-Chlorobenzylamino)-(2-(6-(1-(6-(5-(3aS,4S,6aR)-oxohexahydro-1H-thieno[3,4-d]imidazol-4-yl)pentanamido)hexyl-1H-1,2,3-triazol-4-yl)hex-1-ynyl)-9H-purin-9-yl)-2′,3′-dihydroxybicyclo[3.1.0]hexane-1′-carboxylic acid N-methylamide]

SMILES | inhibition at 10 µM
CNC(=O)[C@@]12C[C@@H]1[C@@H](n1cnc3c(NCc4cccc(Cl)c4)nc(-c4nnn(-c5ccc(N=C=S)cc5)c4CCCCc4cn(-c5ccc(N=C=S)cc5)nn4)nc31)[C@H](O)[C@@H]2O [Compound 25, (1S,2R,3S,4R,5S)-6-(3-Chlorobenzylamino)-(2-(1,6-bis(4-isothiocyante-phenyl)-1H-bis(1,2,3-triazol-4-yl)hex-1-ynyl)-9H-purin-9-yl)-2′,3′-dihydroxybicyclo[3.1.0]hexane-1′-carboxylic acid N-methylamide] | 40%
CNC(=O)[C@@]12C[C@@H]1[C@@H](n1cnc3c(NCc4cccc(Cl)c4)nc(C#CCCCCc4cn(-c5ccc(N=C=S)cc5)nn4)nc31)[C@H](O)[C@@H]2O [Compound 26, (1S,2R,3S,4R,5S)-6-(3-Chlorobenzylamino)-(2-(6-(1-(4-isothiocyante-phenyl)-1H-1,2,3-triazol-4-yl)hex-1-ynyl)-9H-purin-9-yl)-2′,3′-dihydroxybicyclo[3.1.0]hexane-1′-carboxylic acid N-methylamide] | 28%

same assay, conditions: [3H]37; HEK293 cells; read-out: Affinity (Ki, nM), A2A

SMILES | Ki
C#CCCCCC#Cc1nc(NCc2cccc(Cl)c2)c2ncn(C3C(O)C(O)C4(C(=O)NC)CC34)c2n1 (stereo not drawn) [Compound 9, (1′S, 2′R, 3′S, 4′S, 5′S)-4′-[6-(3-Chlorobenzylamino)-2-(1,7-octadiynyl)-9H-purin-9-yl]-2′,3′-dihydroxybicyclo[3.1.0]hexane-1′-carboxylic acid N-methylamide] | 7040 ± 1430 nM
CNC(=O)[C@@]12C[C@@H]1[C@@H](n1cnc3c(NCc4cccc(Cl)c4)nc(C#CCCCCc4cn(CCCCN)nn4)nc31)[C@H](O)[C@@H]2O [Compound 16, (1S,2R,3S,4R,5S)-6-(3-Chlorobenzylamino)-(2-(6-(1-(4-aminobutyl)-1H-1,2,3-triazol-4-yl)hex-1-ynyl)-9H-purin-9-yl)-2′,3′-dihydroxybicyclo[3.1.0]hexane-1′-carboxylic acid N-methylamide] | 1630 ± 350 nM
CNC(=O)[C@@]12C[C@@H]1[C@@H](n1cnc3c(NCc4cccc(Cl)c4)nc(C#CCCCCc4cn(C56CC7CC(CC(C7)C5)C6)nn4)nc31)[C@H](O)[C@@H]2O [Compound 18, (1S,2R,3S,4R,5S)-6-(3-Chlorobenzylamino)-(2-(6-(1-(adamantyl)-1H-1,2,3-triazol-4-yl)hex-1-ynyl)-9H-purin-9-yl)-2′,3′-dihydroxybicyclo[3.1.0]hexane-1′-carboxylic acid N-methylamide] | 3280 ± 700 nM

Continued, values first:

Ki | SMILES
6730 ± 280 nM | CNC(=O)[C@@]12C[C@@H]1[C@@H](n1cnc3c(NCc4cccc(Cl)c4)nc(C#CCCCCc4cn(-c5ccc(F)c([N+](=O)[O-])c5)nn4)nc31)[C@H](O)[C@@H]2O [Compound 11]
5490 ± 1150 nM | CNC(=O)[C@@]12C[C@@H]1[C@@H](n1cnc3c(NCc4cccc(Cl)c4)nc(C#CCCCCc4cn(-c5ccc(N)cc5)nn4)nc31)[C@H](O)[C@@H]2O [Compound 12, (1S,2R,3S,4R,5S)-4′-(6-(3-Chlorobenzylamino)-2-(6-(1-(4-amino-phenyl)-1H-1,2,3-triazol-4-yl)hex-1-ynyl)-9H-purin-9-yl)-2′,3′-dihydroxybicyclo[3.1.0]hexane-1′-carboxylic acid N-methylamide]
5740 ± 730 nM | CNC(=O)[C@@]12C[C@@H]1[C@@H](n1cnc3c(NCc4cccc(Cl)c4)nc(C#CCCCCc4cn(-c5ccc(C(=O)CBr)cc5)nn4)nc31)[C@H](O)[C@@H]2O [Compound 14, (1S,2R,3S,4R,5S)-6-(3-Chlorobenzylamino)-4-(2-(6-(4-(2-bromoacetyl)phenyl)-1H-1,2,3-triazol-4-yphex-1-ynyl)-9H-purin-9-yl)-2′,3′-dihydroxybicyclo[3.1.0]hexane-1′-carboxylic acid N-methylamide]
2440 ± 320 nM | CNC(=O)[C@@]12C[C@@H]1[C@@H](n1cnc3c(NCc4cccc(Cl)c4)nc(C#CCCCCc4cn(CCNC(C)=O)nn4)nc31)[C@H](O)[C@@H]2O [Compound 15, (1S,2R,3S,4R,5S)-6-(3-Chlorobenzylamino)-(2-(6-(1-(4-acetamidoethyl)-1H-1,2,3-triazol-4-yl)hex-1-ynyl)-9H-purin-9-yl)-2′,3′-dihydroxybicyclo[3.1.0]hexane-1′-carboxylic acid N-methylamide]
7240 ± 510 nM | CNC(=O)[C@@]12C[C@@H]1[C@@H](n1cnc3c(NCc4cccc(Cl)c4)nc(C#CCCCCc4cn(CCCCNC(C)=O)nn4)nc31)[C@H](O)[C@@H]2O [Compound 17, (1S,2R,3S,4R,5S)-6-(3-Chlorobenzylamino)-(2-(6-(1-(4-acetamidobutyl)-1H-1,2,3-triazol-4-yl)hex-1-ynyl)-9H-purin-9-yl)-2′,3′-dihydroxybicyclo[3.1.0]hexane-1′-carboxylic acid N-methylamide]

same assay, conditions: inhibition of radioligand binding at 10 μM; [3H]37; HEK293 cells

% inhibition, A2A | SMILES
(19 ± 5%) | CNC(=O)[C@@]12C[C@@H]1[C@@H](n1cnc3c(NCc4cccc(Cl)c4)nc(C#CCCCCc4cn(CCCCCCC(=O)NCCCCCCNC(=O)CCCC[C@@H]5SC[C@@H]6NC(=O)N[C@@H]65)nn4)nc31)[C@H](O)[C@@H]2O [Compound 21]
(23 ± 5%) | CNC(=O)[C@@]12C[C@@H]1[C@@H](n1cnc3c(NCc4cccc(Cl)c4)nc(C#CCCCCc4cn(CCCCCCNC(=O)c5ccc(-c6c7ccc(=N)c(S(=O)(=O)O)c-7oc7c(S(=O)(=O)O)c(N)ccc67)c(C(=O)O)c5)nn4)nc31)[C@H](O)[C@@H]2O [Compound 23]
